US20080081078A1, “Prevention of Cell Proliferation by Inhibiting Myosin Light Chain Kinase” (The Board of Trustees of the University of Illinois, priority 2006, published 2008)
*1 amine or outer side, *2 acyl side, *3 side chain or, on linkers, in order; H or OH if unused. Where a SMILES comes first, the peptide text is derived from it. Bridges are numbered along the chain shown (N, C = ends). Roman numbers before positions name the chains, in order. [ ]: non-standard residue; d: D form. The star is where a group is joined. Actinocin(9to1) = Cc1c2oc3c(C)ccc(C(=O)[*:1])c3nc-2c(C(=O)[*:2])c(N)c1=O; NMeV = CN[C@H](C(=O)O)C(C)C; Cbz = O=C(OCc1ccccc1)*; Sar = CNCC(=O)O; CH2F = FC*

Tests used:
MLC20 phosphorylation [1] = test: MLC20 phosphorylation by urea gel/Western blotting in smooth muscle cells (SMC); assay type: cell-based, pig
Procedure: NIH 3T3 fibroblasts were obtained from ATCC and were grown in Dulbecco's Modified Eagle Medium (DMEM) (Gibco BRL, Gaithersburg, Md.) supplemented with 10% FBS and 1% penicillin and streptomycin in a 37° C. incubator. 3T3 cells were treated with 500 nM actinomycin D in DMEM containing 0.5% FBS without antibiotics for the 0, 2, 4, 8, 16, or 24 hours. Cells were then washed with phosphate buffered saline (PBS). Floating cells were collected by centrifugation and combined with attached cells that were harvested by trypsinization. MLC20 phosphorylation was quantified be Western blotting with an anti-MLC20 antibody (FIG. 1). In short, the harvested cells were treated with ice cold 10% TCA, 10 mM DTT to precipitate the cellular proteins. The pellets were washed with acetone, dissolved in 9 M urea, 10 mM DTT, 20 mM Tris, pH 7.5 and separated using glycerol-urea polyacrylamide gel electrophoresis (PAGE). The proteins were transferred to nitrocellulose, the un-, mono-, and di-phosphorylated forms of MLC20 were identified using an affinity purified antibody to MLC20 and horseradish peroxidase-linked secondary antibody (Jackson ImmunoResearch, West Grove, Pa.). Protein bands were visualized with ECL reagent and the stoichiometry of phosphorylation (mol PO4/mol MLC20) was calculated as described (Obara et al., 1989, “Okadaic acid, a phosphatase inhibitor, produces a Ca2+ and calmodulin-independent contraction of lamb tracheal smooth muscle,” Pfluger's Archiv. 414: 134-138).
(§1) The stoichiometry of MLC20 phosphorylation (FIG. 1B, inset) was quantified using the urea gel/Western blotting method described above in untreated (Un) pig pulmonary artery smooth muscle cells (SMC) and SMC treated with 10 μM dexamethasone (Dex), 10 μM actinomycin D (ActD), 100 μM cycloheximide (Chx), 2 μM camptothecin (Cam), and 100 μM etoposide (Eto) for 24 hrs (mean+/−SE, n=3).
(§2) Next, in order to determine whether MLC-DP can trigger cell death, SMC were treated with ML-7 or KT5926, two inhibitors of MLCK (Nakanishi et al., 1990; Garcia, 1998; and Bain et al., 2003).
(§3) SMC cells were either treated with 10 μM cytochalasin D (CytD) or grown on the non-ionic substrate polyHema to prevent attachment.

MLC20 phosphorylation [2] = test: MLC20 phosphorylation by urea gel/Western blotting in NIH 3T3 fibroblasts; assay type: cell-based; details: 500 nM actinomycin D, 0-24 hours
Procedure: NIH 3T3 fibroblasts were obtained from ATCC and were grown in Dulbecco's Modified Eagle Medium (DMEM) (Gibco BRL, Gaithersburg, Md.) supplemented with 10% FBS and 1% penicillin and streptomycin in a 37° C. incubator. 3T3 cells were treated with 500 nM actinomycin D in DMEM containing 0.5% FBS without antibiotics for the 0, 2, 4, 8, 16, or 24 hours. Cells were then washed with phosphate buffered saline (PBS). Floating cells were collected by centrifugation and combined with attached cells that were harvested by trypsinization. MLC20 phosphorylation was quantified be Western blotting with an anti-MLC20 antibody (FIG. 1). In short, the harvested cells were treated with ice cold 10% TCA, 10 mM DTT to precipitate the cellular proteins. The pellets were washed with acetone, dissolved in 9 M urea, 10 mM DTT, 20 mM Tris, pH 7.5 and separated using glycerol-urea polyacrylamide gel electrophoresis (PAGE). […] Protein bands were visualized with ECL reagent and the stoichiometry of phosphorylation (mol PO4/mol MLC20) was calculated as described (Obara et al., 1989, “Okadaic acid, a phosphatase inhibitor, produces a Ca2+ and calmodulin-independent contraction of lamb tracheal smooth muscle,” Pfluger's Archiv. 414: 134-138).

[3] = test system: pig pulmonary artery smooth muscle cells; test: Cell death / apoptosis in smooth muscle cells (SMC); assay type: cell-based
Procedure: as §1, §2, §3
SMC were left untreated, treated with ML-7 alone for 16 hours or treated with 50 μM z-VAD-fmk (caspase) for 1 hr followed by 20 μM ML-7 for 16 hours. […] The results represent the mean+/−SE for 3 independent experiments and * indicates a p value <0.05 using a paired T test.

SMC = test: TUNEL staining of SMC; assay type: cell-based, pig
Procedure: Also, cells were treated with 50 μM z-VAD-fmk for 1 hour, 20 μM ML-7 for 4 hours or 50 μM z-VAD-fmk for 1 hours followed by 20 μM ML-7 for 4 hours (FIG. 5B). The cells were then fixed and stained with TUNEL reagent and DAPI.

NIH 3T3 cells = test: Cell death in NIH 3T3 cells; assay type: cell-based; details: data not shown
[4] = 24 hrs, 10 μM Dex, 10 μM ActD, 100 μM Chx, 2 μM Cam, 100 μM Eto

Cc1c2oc3c(C)ccc(C(=O)N[C@@H]4C(=O)N[C@H](C(C)C)C(=O)N5CCC[C@H]5C(=O)N(C)CC(=O)N(C)[C@@H](C(C)C)C(=O)O[C@@H]4C)c3nc-2c(C(=O)N[C@@H]2C(=O)N[C@H](C(C)C)C(=O)N3CCC[C@H]3C(=O)N(C)CC(=O)N(C)[C@@H](C(C)C)C(=O)O[C@@H]2C)c(N)c1=O [actinomycin D] (I: T[dV]P[Sar][NMeV] / II: T[dV]P[Sar][NMeV]; ester I:1-I:C, II:1-II:C; linker I:N-II:N via Actinocin(9to1))
MLC20 phosphorylation (MLC20 phosphorylation [1]; [4]): dephosphorylated
MLC20 phosphorylation (MLC20 phosphorylation [2]): initial increase in MLC20 phosphorylation that was followed by MLC20 dephosphorylation

C=C1[C@@H](C)[C@H]2[C@H](Cc3ccccc3)NC(=O)[C@]23[C@H](OC(C)=O)/C=C/[C@@](C)(O)C(=O)[C@@H](C)C/C=C/[C@H]3[C@@H]1O [cytochalasin D]
MLC20 phosphorylation (MLC20 phosphorylation [1]; 10 μM cytochalasin D overnight, vs untreated): significant decreases
cell death ([3]; SMC, 10 μM cytochalasin D overnight, vs untreated): significant increases

COC(=O)C[C@H](NC(=O)[C@H](C)NC(=O)[C@@H](NC(=O)OCc1ccccc1)C(C)C)C(=O)CF [z-VAD-fmk] (Cbz-Val-Ala-Asp(OMe)-CH2F)
TUNEL positive nuclei in ML-7 treated cells (SMC; 50 μM z-VAD-fmk 1 hour then 20 μM ML-7 4 hours): decreased the number of TUNEL positive nuclei
TUNEL positive nuclei (SMC; single agent: 50 μM z-VAD-fmk 1 hour or 20 μM ML-7 4 hours): very few TUNEL positive nuclei
number of apoptotic cells (FACS) ([3]; 50 μM z-VAD-fmk 1 hr then 20 μM ML-7 16 hours, vs ML-7 alone): significant decrease

C[C@@H]1C[C@@H]([C@H](O)CC2CC(=O)NC(=O)C2)C(=O)[C@@H](C)C1 [cycloheximide]
MLC20 phosphorylation (MLC20 phosphorylation [1]; [4]): dephosphorylated

CCCOc1ccc2c(c1)c1c3c(c4c5ccccc5n5c4c1n2[C@H]1C[C@](O)(C(=O)OC)[C@]5(C)O1)CNC3=O (relative stereo) [KT5926, [(8R*,9S*,11S*)-(−)9-hydroxy-9-methoxycarbonyl-8-methyl-14-n-propoxy-2,3,9,10-tetrahydro-8,11-epoxy, 1H,8H, 11H-2,7b,11a-triazadibenzo [a,g]cycloocta [cde]trinden-1-one]
cell death (NIH 3T3 cells): cell death, including genome digestion

CC[C@@]1(O)C(=O)OCc2c1cc1n(c2=O)Cc2cc3ccccc3nc2-1 [camptothecin]
MLC20 phosphorylation (MLC20 phosphorylation [1]; [4]): dephosphorylated
